# Publication PMC3390971 (Clinical Cancer Research, 2010)
# Where “and” joins values, the source holds several entries; their conditions need not be identical. Equal entries are not always repeated. Where two headings read alike, the source gives them in different places. Marks after values point to notes of the source that are not given here.
# Columns and labels:
# SiHa xenografts = test: SiHa xenograft tumor regrowth assay with fractionated radiation; assay type: in vivo, CD-1 nude mice; conditions: for Radiation-induced tumor regrowth delay: 30 min before each of 2 Gy × 8
# HT29 cells [1] = test: Oxygen dependence of cytotoxicity and metabolism in stirred cell suspensions; assay type: cell-based, human; conditions: mean ± SEM
# HT29 MCL [2] = test: Diffusion in multicellular layers; conditions: higher than TPZ
# [3] = Animal toxicity: maximum tolerated dose in rats; assay type: in vivo
# [4] = mouse, in vivo
# HT29 MCL [5] = system: HT29 MCL
# HT29 cells [6] = conditions: HT29 cell suspensions, mean ± SEM
# [7] = cited from earlier work
# [8] = cited from earlier work; remark: listed apart in the source
# [9] = Animal toxicity: maximum tolerated dose in mice; assay type: in vivo
# [10] = cited from earlier work; remark: listed apart in the source
# 8 human tumor cell lines = test: In vitro growth inhibition; assay type: cell-based; conditions: 8 cell lines
# HT29 cells [11] = test: Clonogenic cell killing in stirred single cell suspensions; assay type: cell-based, human; conditions: anoxia, mean ± SEM
# [12] = cited from earlier work; remark: listed apart in the source
# [13] = system: HT29, SiHa and H460 xenografts; test: Excision; assay type: in vivo, CD-1 nude mice; conditions: three xenograft models, 75% of MTD
# [14] = Mouse plasma protein binding; assay type: in vitro ADME; conditions: mean ± SEM
# [15] = Plasma pharmacokinetics in mice; conditions: male CD-1 nude mice, single i.p. dose at 75% of MTD
# [16] = mouse; cited from earlier work
# HT29 cells [17] = conditions: cited from earlier work
structure (smiles),measurement,setting,value
[O-][n+]1nc(CCCN2CCOCC2)[n+]([O-])c2cc3c(cc21)CCC3 [SN30000],Radiation-induced tumor regrowth delay,"SiHa xenografts; 176 µmol/kg/dose, p=0.0058 log rank test",highly significant increases
same,Activity of drug alone in tumor regrowth assay,"SiHa xenografts; 263 µmol/kg/dose, 8-dose schedule, without radiation",not significantly active
same,Radiation-induced tumor regrowth delay,"SiHa xenografts; 263 µmol/kg/dose, p=0.0004 log rank test",highly significant increases
same,"KO2, O2 concentration to halve anoxic cytotoxic potency",HT29 cells [1],1.14 ± 0.24 µM
same,DMCL relative to TPZ,HT29 MCL [2],3 fold
same,MTD,"[3]; Sprague-Dawley rats, both sexes, single i.p. dose",316 µmol/kg
same,i.p. bioavailability,[4],77%
same,"D, diffusion coefficient in HT29 MCLs and tumors",HT29 MCL [5],1.26 ± 0.11 (6) ×10^−6 cm^2s^−1
same,"kmet0, first order rate constant for prodrug metabolism under anoxia",HT29 cells [6],1.53 ± 0.21 min^−1 and 1.53 ± 0.21 (8) min^−1
same,Calculated amine pKa,[7],7.1 ^c
same,Solubility in culture medium at 37°C,[8],48.5 ^c mM
same,MTD for bi-daily dosing for 4 consecutive days (BID1-4),"[9]; i.p., 9 am and 3 pm, 4 consecutive days, CD-1 nude mice",237 µmol/kg
same,Maximum tolerated dose (MTD),"[9]; single i.p. administration, male CD-1 nude mice",275 mg/kg
same,MTD (molar dose) relative to TPZ,"[9]; single i.p., male CD-1 nude mice, higher than TPZ",4.2 fold
same,"Log P, pH 7.4 (octanol:water partition coefficient)",[10],0.50 ± 0.05 ^c
same,HCR (aerobic IC50 / anoxic IC50) compared across compounds,8 human tumor cell lines,consistently higher
same,Potency under anoxia (hypoxic IC50) compared with TPZ,"8 human tumor cell lines; 4 h exposure, anoxia",consistently more potent than TPZ
same,"γ, proportionality constant in PD model (anoxic clonogenic potency coefficient)",HT29 cells [11],5.34 ± 0.89 (13) ×10^−5 µM^−2
same,E(1) One electron reduction potential,[12],−399 ± 8 ^c mV
same,One-electron reduction potential difference (higher than TPZ),[12],57 mV
same,Therapeutic gain over TPZ with single dose radiation,[13],~3 fold
same,"θ, free fraction of drug in plasma in mice",[14],83 ± 1%
same,"AUCp∞, area under the plasma (total drug) concentration-time curve extrapolated to infinity in mice",[15],79 µM·h
same,"t½, plasma terminal half life in mice",[15],32 min and 32.1 min
"Nc1n[n+]([O-])c2ccccc2[n+]1[O-] [TPZ, tirapazamine, reference compound]",MTD at 28 days,"[3]; both, Sprague-Dawley, rat, in vivo, ip",178 µmol/kg
same,"D, diffusion coefficient in HT29 MCLs and tumors",HT29 MCL [5]; human,0.40 ± 0.02 (12) ×10^−6 cm^2s^−1
same,MTD at 4 days,"[9]; CD-1 nu/nu, mouse, in vivo, ip",75 µmol/kg
same,MTD at 28 days,"[9]; male, CD-1 nu/nu, mouse, in vivo, ip",178 µmol/kg
same,"Log P, pH 7.4 (octanol:water partition coefficient)",[10],−0.34 ± 0.02 ^a
same,"γ, proportionality constant in PD model (anoxic clonogenic potency coefficient)",HT29 cells [11],2.41± 0.13 (72) ×10^−5 µM^−2
same,E(1) One electron reduction potential,[12],−456 ± 8 ^a mV
same,"θ, free fraction of drug in plasma in mice",[16],100 ± 5.3 ^f %
same,"KO2, O2 concentration to halve anoxic cytotoxic potency",HT29 cells [17],1.21 ± 0.09 ^d µM
